Assay: Oxidation-reduction resistance evaluation (cyclic voltammetry)
Format: physicochemical
Conditions: 0.1 mol/L in 1.0 mol/L aqueous sodium hydrogen carbonate; glass-like carbon electrode, Ag/AgCl reference; sweep rate 100 mV/sec
Procedure: The fluoflavine compound represented by the formula (1-2) was dissolved in an aqueous solution (1.0 mol/L) of sodium hydrogen carbonate (manufactured by Tosoh Corporation, an industrial product) so that the concentration was 0.1 mol/L to produce an electrolyte liquid 10. The electrolyte liquid 10 was added into a sample vial for voltammetry (manufactured by BAS Inc., No. 001056), and a Teflon™ cap for voltammetry (manufactured by BAS Inc., 012671) was attached. A Pt counter electrode (manufactured by BAS Inc., No. 002222), a GCE glass-like carbon electrode (manufactured by BAS Inc., 6.0×3.0 mm, No. 002012), and a saturated KCl/silver/silver chloride reference electrode (manufactured by BAS Inc., No. 013503) were fixed with the Teflon™ cap so as to be immersed in the electrolyte liquid 10, and measurement of cyclic voltammetry was performed with a multi-electrochemical measurement system (manufactured by Hokuto Denko Co., Ltd., HZ-Pro). The potential scanning range was set to −500 mV to 700 mV, and a sweep rate was set to 100 mV/see to perform the measurement.
An electrolyte liquid 12 was prepared in the same manner except that the fluoflavine compound represented by the formula (1-2) in the oxidation-reduction resistance evaluation 1 was changed to the compound represented by the formula (1-17). […]

O=S(=O)([O-])c1cc(O)c(O)c(S(=O)(=O)[O-])c1.[Na+].[Na+] [formula (1-17)]
oxidation-reduction resistance (cyclic voltammogram, first cycle): oxidized and then decomposed
